Laboratory results reported in US20250186450A1, “COMBINATION THERAPY COMPRISING DGK INHIBITORS and PD-1/PD-L1 INHIBITORS” (Incyte Corporation, priority 2023, published 2025).

How the values were obtained:
[1] = target: DGKα (Homo sapiens (Human), UniProt P23743); test: In vitro DGKα inhibition assay (ADP-Glo); type: biochemical; conditions: 0.1 nM DGKα, 50 μM ATP, 20 μM DLG
Experimental: The DGKα and DGKζ biochemical reactions were performed using His-tagged human recombinant enzymes (Signal Chem, DGKα, #D21-10BH; DGKζ, #D30-10H)) and DLG (Dilauroyl-sn-glycerol) lipid substrate (Signal Chem, #D430-59). ADP-Glo assay was performed using ADP-Glo™ kinase Assay kit (Promega, #V9104). The reactions were carried out in assay buffer containing 40 mM Tris, pH 7.5, 0.1% CHAPS, 0.1% Prionex, 40 mM NaCl, 5 mM MgCl2, 1 mM CaCl2, and 1 mM DTT. DGKα reactions contained 0.1 nM DGKα, 50 μM ATP, and 20 μM DLG. And DGKζ reactions contained 0.4 nM DGKζ, 30 μM ATP, and 20 μM DLG.
For compound inhibition studies, 40 nL test compound in DMSO was added to wells of white polystyrene plates in 384-well (Greiner, #784075) or 1536-well format (Greiner, #782075). Compounds were added with top concentration of 2 mM with 11 point, 3-fold dilution series. Enzyme solution (contains 2×DGK enzyme concentration in 1× assay buffer) was added to the plate in 2 μL/well volume, followed by 2 μL/well of substrate solution (contains 2× concentration of ATP and DLG substrate in 1× assay buffer). Plates were then centrifuged for 1 min at 1200 RPM and sealed or lidded. For 4 μL reaction volume, test compounds were therefore diluted 100× to final top concentration of 20 μM. After 90 minute incubation, reactions were quenched by addition of 2 μL/well Promega ADP-Glo Reagent, followed by centrifugation and lidding. After 60 min incubation, 2 μL/well Promega Kinase Detection Reagent was added, plates centrifuged, and incubated for 30 min. Plates were then read using Luminescence method on BMG PHERAstar FSX plate reader. Percent inhibition was calculated and IC50s were determined using 4-parameter fit in Genedata Screener. Labcyte Echo acoustic dispenser was used for compound addition, and Formulatrix Tempest liquid handler was used for all reagent dispenses.

[2] = system: CT26 syngeneic tumor model; test: CT26 syngeneic tumor model, DGK inhibitor plus anti-PD-1 (RMP1-14); type: in vivo, Balb/C mice; conditions: for tumor growth delay vs control vehicle group: Compound 1 alone
Experimental: The in vivo effect of combining Compound 1 plus anti-PD-1 (RMP1-14, Bio X Cell) was assessed in the CT26 (CRL-2638, ATCC, Manassas, VA) syngeneic tumor model (see FIG. 1) in 6 to 8 weeks old Balb/C mice (Jackson laboratories). Compound 1 was suspended in 5% N,N-dimethylacetamide (DMAC)+50 mM Citrate buffer in 0.5% methyl cellulose for oral administration and RMP1-14 was suspended in saline for intraperitoneal administration. Briefly, the left flank of the mice was shaved the day prior to subcutaneous inoculation with 1×10^6 CT26 cells suspended in PBS. On day 7, tumor dimensions were measured by Vernier calipers, and volume estimated by the formula Volume=[L (long dimension)×W^2 (short dimension)]/2. Mice were randomized into 6 groups of 10 mice of approximate mean volume (˜150 mm^3). Tumors were measured 3 times per week for the duration of the study. Starting day 7, mice were dosed with (i) vehicle; (ii) 250 μg/mouse of RMP1-14; (iii) 10 mg/kg of Compound 1; (iv) 3 mg/kg of Compound 1; (v) 10 mg/kg of Compound 1 and 250 μg/mouse of RMP1-14; or (vi) 3 mg/kg of Compound 1 and 250 μg/mouse of RMP1-14. Compound 1 was administered orally once daily (QD) for 14 days, while RMP1-14 was dosed every 5 days (for a total of 3 doses).
In a separate experiment, mice were randomized on day 7 into 10 groups of 10 mice of approximate mean volume (˜120 mm^3). Tumors were measured 3 times a week for the duration of the efficacy study (day 22). Starting day 7, mice were dosed with (i) vehicle; (ii) 250 μg/mouse of RMP1-14; (iii) 10 mg/kg of Compound 1 QD; (iv) 10 mg/kg of Compound 1 Q2D; (v) 3 mg/kg of Compound 1 QD; (vi) 3 mg/kg of Compound 1 […]; (vii) 10 mg/kg of Compound 1 QD and 250 μg/mouse of RMP1-14; (viii) 10 mg/kg of Compound 1 Q2D and 250 μg/mouse of RMP1-14; (ix) 3 mg/kg of Compound 1 QD and 250 μg/mouse of RMP1-14; or (x) 3 mg/kg of Compound 1 Q2D and 250 μg/mouse of RMP1-14. Compound 1 was administered orally either daily (QD) or every other day (Q2D) for 10 days, while RMP1-14 was dosed every 5 days (for a total of 2 doses).
The in vivo effect of combining Compound 2 plus anti-PD-1 (RMP1-14, Bio X Cell) was assessed in the CT26 (CRL-2638, ATCC, Manassas, VA) syngeneic tumor model (see FIG. 6A-6B) in 6 to 8 weeks old Balb/C mice (Jackson laboratories). Compound 2 was suspended in 5% N,N-dimethylacetamide (DMAC)+50 mM Citrate buffer in 0.5% methyl cellulose for oral administration and RMP1-14 was suspended in saline for intraperitoneal administration. Briefly, the left flank of the mice was shaved the day prior to subcutaneous inoculation with 1×10^6 CT26 cells suspended in PBS. On day 7, tumor dimensions were measured by Vernier calipers, and volume estimated by the formula Volume=[L (long dimension)×W^2 (short dimension)]/2. Mice were randomized into 6 groups of 10 mice of approximate mean volume (˜130 mm^3). Tumors were measured 3 times per week for the duration of the study. Starting day 7, mice were dosed with (i) vehicle; (ii) 250 μg/mouse of RMP1-14 (Anti-PD-1); (iii) 1.5 mg/kg of Compound 2 QD; (iv) 1.5 mg/kg of Compound 2 QD and 250 μg/mouse of RMP1-14; (v) 1.5 mg/kg of Compound 2 Q2D; (vi) 1.5 mg/kg of Compound 2 Q2D and 250 μg/mouse of RMP1-14; (vii) 1.5 mg/kg of Compound 2 Q3D; or (viii) 1.5 mg/kg of Compound 2 Q3D and 250 μg/mouse of RMP1-14.

Chain of DGKα (P23743 whole entry): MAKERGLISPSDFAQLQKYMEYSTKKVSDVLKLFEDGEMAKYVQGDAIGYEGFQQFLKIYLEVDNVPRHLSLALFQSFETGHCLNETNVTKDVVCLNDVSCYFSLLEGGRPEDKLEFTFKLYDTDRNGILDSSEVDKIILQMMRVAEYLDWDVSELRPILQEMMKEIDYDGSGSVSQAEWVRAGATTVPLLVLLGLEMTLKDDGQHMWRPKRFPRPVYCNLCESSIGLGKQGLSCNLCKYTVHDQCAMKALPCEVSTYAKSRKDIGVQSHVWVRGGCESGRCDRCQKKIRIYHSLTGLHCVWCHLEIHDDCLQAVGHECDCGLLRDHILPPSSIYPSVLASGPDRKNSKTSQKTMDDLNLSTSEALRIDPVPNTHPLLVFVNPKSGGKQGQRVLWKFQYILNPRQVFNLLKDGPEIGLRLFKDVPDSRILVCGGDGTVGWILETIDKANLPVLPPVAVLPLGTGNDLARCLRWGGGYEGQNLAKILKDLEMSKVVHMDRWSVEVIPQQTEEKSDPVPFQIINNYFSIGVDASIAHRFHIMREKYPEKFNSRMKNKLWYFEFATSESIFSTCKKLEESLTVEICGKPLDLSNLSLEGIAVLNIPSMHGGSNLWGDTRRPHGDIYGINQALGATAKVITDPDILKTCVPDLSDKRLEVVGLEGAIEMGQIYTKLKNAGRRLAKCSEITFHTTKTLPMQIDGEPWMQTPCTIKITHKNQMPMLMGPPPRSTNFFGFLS

IC50 [1] [nM] | Structure (SMILES) | TGI, combined with anti-PD-1 mAb ([2]; 1.5 mg/kg Compound 2 Q2D and 250 μg/mouse RMP1-14, FIGS. 6A-6B) | TGI, combination groups vs respective single-arm control group ([2]; 1.5 mg/kg Compound 2 QD, Q2D or Q3D and 250 μg/mouse RMP1-14) | TGI vs vehicle control group ([2]; Compound 2 alone, 1.5 mg/kg QD, Q2D or Q3D, FIG. 6B) | combination effect on tumor growth delay (Bliss Independence analysis) ([2]; 10 mg/kg or 3 mg/kg Compound 1 QD for 14 days with 250 μg RMP1-14 every 5 days, vs respective controls, FIG. 1) | combination effect on tumor growth delay (Bliss Independence analysis) ([2]; 10 mg/kg or 3 mg/kg Compound 1 QD or Q2D for 10 days with 250 μg RMP1-14, vs respective controls, FIG. 2) | tumor growth delay vs control vehicle group ([2]; 10 mg/kg orally QD for 14 days, FIG. 1) | tumor growth delay vs control vehicle group ([2]; 10 and 3 mg/kg QD for 10 days, separate experiment, FIG. 2) | tumor volume vs RMP1-14 alone (Kruskal-Wallis Multiple Comparison Test) ([2]; all groups tested against group (ii) 250 μg/mouse RMP1-14, FIG. 2)
≤ 20 | Cc1nc2c(N3C[C@@H](C)N(C(c4ccc(C(F)(F)F)cc4)C4CC(F)(F)C4)C[C@@H]3C)nc3nncn3c2n1C[C@@H]1CCCO1 (single isomer, unassigned) [Example 2] | significant TGI | statistically significant | None of the single treatment arm groups dosed with 1.5 mg/kg Compound 2 provided statistically significant TGI |  |  |  |  | 
≤ 20 | C[C@@H]1CN(c2nc3nncn3c3c2nnn3C[C@H]2CCCO2)[C@@H](C)CN1C(c1ccc(F)cc1)c1ccc(F)cc1 [Example 1, 4-((2S,5R)-4-(Bis(4-fluorophenyl)methyl)-2,5-dimethylpiperazin-1-yl)-1-(((R)-tetrahydrofuran-2-yl)methyl)-1H-[1,2,3]triazolo[4,5-e][1,2,4]triazolo[4,3-a]pyrimidine] |  |  |  | synergistic effect in tumor growth delay | synergistic effect in tumor growth delay | therapeutic effect in delaying tumor growth | therapeutic effect in delaying tumor growth | statistical significance
